Key:
[1] = system: rice; test: Test B pre-/postemergence herbicide test; format: in vivo, Oryza sativa; conditions: 0 = no effect, 100 = complete control; for Rice plant response rating (0 to 100 scale) / Plant response rating, Rice: preemergence
Summary of the method: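 Test chemicals in a non-phytotoxic solvent mixture with surfactant were applied preemergence to seeded species and postemergence to plants 2-18 cm tall (1- to 4-leaf stage); rice and barnyardgrass were also tested in a flooded paddy at the 2-leaf stage. Visual rating versus controls after 13-15 days in greenhouse, scale 0 (no effect) to 100 (complete control).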

[2] = system: rice; test: Test C flooded paddy test; format: in vivo, Oryza sativa
Summary of the method: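 Plants were grown to the 1- to 4-leaf stage (2–18 cm) and then treated postemergence, or grown to the 2-leaf stage for the flooded paddy test. They were held in a greenhouse for 12 to 14 days and then scored by eye against controls, where 0 is no effect and 100 is complete control.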

[3] = system: barnyardgrass; test: Test C flooded paddy test; format: in vivo, Echinochloa crus-galli
Summary of the method: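 Ratings (0 = no effect, 100 = complete control) come from visual comparison with untreated plants after 12 to 14 days in the greenhouse. Treatment was postemergence at the 1- to 4-leaf stage (2–18 cm), or at the 2-leaf stage for the flooded paddy barnyardgrass.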

[4] = system: large crabgrass; test: Test A pre-/postemergence herbicide test; format: in vivo, Digitaria sanguinalis
Summary of the method: (§1)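 Sandy loam soil given preemergence directed spray; plants at 2 to 10 cm, one- to two-leaf stage, sprayed to runoff postemergence, compounds in non-phytotoxic solvent with surfactant. Injury rated visually versus untreated controls after about ten greenhouse days, 0 (no effect) to 100 (complete control); dash means not tested.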

[5] = system: redroot pigweed; test: Test A pre-/postemergence herbicide test; format: in vivo, Amaranthus retroflexus
Summary of the method: as §1

[6] = 125 g ai/ha, scale 0 to 100 (0 no effect, 100 complete control)
[7] = 250 g ai/ha, scale of 0 to 100, 0 is no effect, 100 is complete control
[8] = 500 g ai/ha, visual rating after 12 to 14 days, scale 0 to 100 (0 no effect, 100 complete control)
[9] = 62 g ai/ha, scale 0 to 100 (0 no effect, 100 complete control)
[10] = Postemergence, 500 g ai/ha, 0 to 100 scale, 0 no effect, 100 complete control
[11] = Postemergence, 2000 g ai/ha, 0 to 100 scale, 0 no effect, 100 complete control
[12] = Preemergence, 2000 g ai/ha, visual rating, 0 to 100 scale (0 no effect, 100 complete control)
[13] = preemergence, 500 g ai/ha, visual injury, 0 to 100 scale (0 no effect, 100 complete control)

| Compound | Rice plant response rating (0 to 100 scale) ([1]; 125 g ai/ha) | Plant response rating, Rice ([1]; 500 g ai/ha, visual rating) | Rice plant response rating ([2]; 62 g ai/ha, scale 0 to 100) | Rice plant response rating [2, 6] | Barnyardgrass plant response rating [3, 9] | Barnyardgrass plant response rating [3, 6] | Crabgrass, Large plant response rating [4, 10] | Plant response rating, Crabgrass, Large [4, 11] | Crabgrass, Large plant response rating [4, 12] | Crabgrass, Large plant response rating [4, 13] | Pigweed plant response rating [5, 10] | Plant response rating, Pigweed [5, 11] | Pigweed plant response rating [5, 12] | Pigweed plant response rating [5, 13] | other results |
| --- | --- | --- | --- | --- | --- | --- | --- | --- | --- | --- | --- | --- | --- | --- | --- |
| CCn1nc(C(C)(C)C)c(F)c1C(=O)Nc1cc(C(=O)N(C)C)ccc1F [Compound 276, N-[5-[(dimethylamino)carbonyl]-2-fluorophenyl]-3-(1,1-dimethylethyl)-1-ethyl-4-fluoro-1H-pyrazole-5-carboxamide] |  |  |  |  |  |  |  |  |  |  |  |  |  |  | plant injury at 125 g/ha ([1]; Oryza sativa, pre-emergence, 336 h, 125 g ai/ha, read-out: Rice plant response rating (0 to 100 scale)): 50%; plant injury at 500 g/ha ([1]; Oryza sativa, pre-emergence, 336 h, 500 g ai/ha, visual rating, read-out: Plant response rating, Rice): 80%; plant injury at 62 g/ha ([2]; Oryza sativa, 62 g ai/ha, scale 0 to 100, read-out: Rice plant response rating): 0%; plant injury at 125 g/ha ([2]; Oryza sativa, 125 g ai/ha, scale 0 to 100 (0 no effect, 100 complete control), read-out: Rice plant response rating): 15%; plant injury at 250 g/ha ([2]; Oryza sativa, 250 g ai/ha, scale of 0 to 100, 0 is no effect, 100 is complete control, read-out: Rice plant response rating): 50%; plant injury at 500 g/ha ([2]; Oryza sativa, 500 g ai/ha, visual rating after 12 to 14 days, scale 0 to 100 (0 no effect, 100 complete control), read-out: Plant response rating, Rice): 70%; pest or weed control at 62 g/ha ([3]; Echinochloa crus-galli, 62 g ai/ha, scale 0 to 100 (0 no effect, 100 complete control), read-out: Barnyardgrass plant response rating): 0%; pest or weed control at 125 g/ha ([3]; Echinochloa crus-galli, 125 g ai/ha, scale 0 to 100 (0 no effect, 100 complete control), read-out: Barnyardgrass plant response rating): 15%; pest or weed control at 250 g/ha ([3]; Echinochloa crus-galli, 250 g ai/ha, scale of 0 to 100, 0 is no effect, 100 is complete control, read-out: Barnyardgrass plant response rating): 50%; pest or weed control at 500 g/ha ([3]; Echinochloa crus-galli, 500 g ai/ha, visual rating after 12 to 14 days, scale 0 to 100 (0 no effect, 100 complete control), read-out: Plant response rating, Barnyardgrass): 70% |
| C=CCN(C)C(=O)c1cccc(NC(=O)c2cc(C(C)(C)C)nn2CC)c1 [Compound 285] | 40 | 80 | 25 | 40 | 10 | 25 | 15 | 35 | 85 | 60 | 80 | 100 | 100 | 100 | Rice plant response rating [2, 7]: 45; Plant response rating, Rice [2, 8]: 65; Barnyardgrass plant response rating [3, 7]: 55; Plant response rating, Barnyardgrass [3, 8]: 75 |
| CCOC(=O)c1cccc(NC(=O)c2cc(C(C)(C)C)nn2C)n1 [Compound 313] | 20 | 40 | 0 | 20 | 0 | 0 | 70 | 100 | 95 | 85 | 100 | 100 | 100 | 95 | Rice plant response rating ([2]; 16 g ai/ha, scale 0 to 100): 0; Rice plant response rating ([2]; 31 g ai/ha, scale 0 to 100): 0; Barnyardgrass plant response rating ([3]; 16 g ai/ha, scale 0 to 100): 0; Barnyardgrass plant response rating ([3]; 31 g ai/ha, scale 0 to 100): 0 |

Reference: patent publication US20060069132A1, “Azolecarboxamide herbicides” (priority 2004, published 2006)
